Measurements as given in the supplement of paper PMC10307832.

Key:
Test in all cases: relative viability (nuclei count vs DMSO), 5 days (fraction); higher = more cells survive
Crizotinib + OSI-027 = compound: C[C@@H](Oc1cc(-c2cnn(C3CCNCC3)c2)cnc1N)c1c(Cl)ccc(F)c1Cl [Crizotinib] + COc1cccc2cc(-c3nc([C@H]4CC[C@H](C(=O)O)CC4)n4ncnc(N)c34)[nH]c12 [OSI-027] (partner 0.5 µM)
Summary of the method: (§1)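 Lung cancer cell lines were seeded in 1536-well plates and dosed by pin tool the next day, with either a single drug or a fixed anchor-drug dose combined with five library-drug doses (not always all listed) spaced in √10 steps. Five days later, one step fixed the cells and stained their nuclei (final 0.05% Triton X-100, 1% formaldehyde, 1 ug/ml Hoechst), and nuclei were counted on 4× images. Relative viability is the nuclei count in treated wells divided by the count in vehicle wells, and each value is the median of duplicate plates.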

Olaparib + Dasatinib = compound: O=C(c1cc(Cc2n[nH]c(=O)c3ccccc23)ccc1F)N1CCN(C(=O)C2CC2)CC1 [Olaparib] + Cc1nc(Nc2ncc(C(=O)Nc3c(C)cccc3Cl)s2)cc(N2CCN(CCO)CC2)n1 [Dasatinib] (partner 0.075 µM)
Summary of the method: as §1

Olaparib + Lapatinib = compound: O=C(c1cc(Cc2n[nH]c(=O)c3ccccc23)ccc1F)N1CCN(C(=O)C2CC2)CC1 [Olaparib] + CS(=O)(=O)CCNCc1ccc(-c2ccc3ncnc(Nc4ccc(OCc5cccc(F)c5)c(Cl)c4)c3c2)o1 [Lapatinib] (partner 2 µM)
Summary of the method: as §1

Olaparib + Navitoclax = compound: O=C(c1cc(Cc2n[nH]c(=O)c3ccccc23)ccc1F)N1CCN(C(=O)C2CC2)CC1 [Olaparib] + CC1(C)CCC(c2ccc(Cl)cc2)=C(CN2CCN(c3ccc(C(=O)NS(=O)(=O)c4ccc(N[C@H](CCN5CCOCC5)CSc5ccccc5)c(S(=O)(=O)C(F)(F)F)c4)cc3)CC2)C1 [Navitoclax] (partner 0.5 µM)
Summary of the method: as §1

Cell Line | relative viability (Crizotinib + OSI-027; first compound 0.01 µM) | relative viability (Crizotinib + OSI-027; first compound 0.03162 µM) | relative viability (Crizotinib + OSI-027; first compound 0.1 µM) | relative viability (Crizotinib + OSI-027; first compound 0.3162 µM) | relative viability (Crizotinib + OSI-027; first compound 1 µM) | relative viability (Olaparib + Dasatinib; first compound 0.08 µM) | relative viability (Olaparib + Dasatinib; first compound 0.253 µM) | relative viability (Olaparib + Dasatinib; first compound 2.53 µM) | relative viability (Olaparib + Dasatinib; first compound 8 µM) | relative viability (Olaparib + Lapatinib; first compound 0.08 µM) | relative viability (Olaparib + Lapatinib; first compound 0.253 µM) | relative viability (Olaparib + Lapatinib; first compound 2.53 µM) | relative viability (Olaparib + Lapatinib; first compound 8 µM) | relative viability (Olaparib + Navitoclax; first compound 0.08 µM) | relative viability (Olaparib + Navitoclax; first compound 0.253 µM) | relative viability (Olaparib + Navitoclax; first compound 2.53 µM) | relative viability (Olaparib + Navitoclax; first compound 8 µM)
NCI-H520 | 0.272 | 0.295 | 0.24 | 0.27 | 0.258 | 0.176 | 0.178 | 0.189 | 0.153 | 1.08 | 0.795 | 0.725 | 0.525 | 1.32 | 0.932 | 1.08 | 0.601
NCI-H596 | 0.715 | 0.857 | 0.693 | 0.564 | 0.67 | 0.597 | 0.68 | 0.583 | 0.454 | 1.09 | 0.988 | 1.06 | 0.73 | 0.899 | 0.902 | 0.878 | 0.519
NCI-H647 | 0.736 | 0.516 | 0.641 | 0.531 | 0.663 | 0.249 | 0.181 | 0.189 | 0.175 | 1.43 | 0.984 | 1.13 | 0.59 | 1.44 | 1.1 | 1.06 | 0.745
NCI-H727 |  | 0.561 | 0.774 |  | 0.551 | 0.439 | 0.405 | 0.469 | 0.324 | 0.945 | 0.778 | 0.651 | 0.465 | 0.42 | 0.344 | 0.321 | 0.204
NCI-H838 | 0.348 | 0.369 | 0.409 | 0.393 | 0.392 | 0.303 | 0.259 | 0.272 | 0.256 | 0.94 | 0.857 | 0.887 | 1.09 | 1.12 | 1.06 | 1.03 | 1.03
NCI-H1355 | 0.358 | 0.44 | 0.394 | 0.369 | 0.361 | 0.759 | 0.731 | 0.724 | 0.703 | 1.13 | 0.863 | 1 | 0.944 | 0.959 | 0.887 | 0.949 | 0.881
NCI-H1395 | 0.601 | 0.631 | 0.623 | 0.496 | 0.563 | 0.465 | 0.358 | 0.39 | 0.419 | 0.98 | 0.661 | 0.839 | 0.435 | 1.27 | 0.937 | 0.776 | 0.573
NCI-H1437 | 0.758 | 0.901 | 0.824 |  |  | 0.548 | 0.399 | 0.441 | 0.39 | 0.801 | 0.652 | 0.717 | 0.599 | 1.12 | 1.01 | 0.952 | 0.761
NCI-H1650 | 0.554 | 0.624 | 0.585 | 0.54 | 0.569 | 0.313 | 0.342 | 0.287 | 0.285 | 1.04 | 0.756 | 0.796 | 0.749 | 1.7 | 1.1 | 1.24 | 1.11
NCI-H1651 | 0.546 | 0.852 | 0.727 | 0.73 | 0.8 | 0.423 | 0.311 | 0.31 | 0.218 | 0.712 | 0.752 | 0.628 | 0.27 | 0.97 | 0.814 | 0.654 | 0.257
NCI-H1666 | 0.8 | 0.893 | 0.837 | 0.903 | 0.855 | 0.883 | 0.68 | 0.693 | 0.651 | 0.845 | 0.633 | 0.577 | 0.532 | 1.17 | 0.828 | 0.796 | 0.853
NCI-H1734 | 0.592 | 0.606 | 0.473 |  | 0.555 | 0.458 | 0.399 | 0.421 | 0.326 | 1.1 | 0.974 | 0.933 | 0.749 | 0.854 | 0.709 | 0.765 | 0.531
NCI-H1755 | 0.678 | 0.716 | 0.625 | 0.531 | 0.644 | 0.477 | 0.399 | 0.44 | 0.404 | 1.15 | 0.916 | 1.08 | 0.967 | 1.02 | 0.912 | 1.01 | 0.876
NCI-H1792 | 0.72 | 0.748 | 0.656 |  | 0.722 | 0.816 | 0.689 | 0.841 | 0.62 | 0.895 | 0.738 | 0.82 | 0.779 | 0.666 | 0.555 | 0.505 | 0.512
NCI-H1915 | 0.563 | 0.63 | 0.636 |  | 0.608 | 0.315 | 0.294 | 0.28 | 0.252 | 1.05 | 0.813 | 0.778 | 0.76 | 0.721 | 0.725 | 0.739 | 0.486
NCI-H1944 | 0.396 | 0.421 | 0.402 | 0.391 | 0.397 | 0.177 | 0.215 | 0.178 | 0.149 | 0.781 | 0.663 | 0.668 | 0.627 | 0.95 | 0.842 | 1.07 | 0.64
NCI-H1975 | 0.72 | 0.812 | 0.755 | 0.754 | 0.721 | 0.396 | 0.346 | 0.381 | 0.364 | 0.999 | 0.844 | 0.808 | 0.786 | 1.28 | 0.957 | 1.14 | 1.02
NCI-H1993 | 0.564 | 0.507 | 0.543 | 0.516 | 0.563 | 0.725 | 0.556 | 0.656 | 0.716 | 0.932 | 0.779 | 0.855 | 0.77 | 0.872 | 0.914 | 1.19 | 1.27
